The source of these data is ChEMBL document CHEMBL4321852, “Structure-Based and Property-Driven Optimization of N-Aryl Imidazoles toward Potent and Selective Oral RORγt Inhibitors” (J Med Chem, 2019).

Data set [1] addresses T1, Nuclear receptor ROR-beta (Homo sapiens, UniProt Q92753).
T1 sequence (Q92753 whole entry): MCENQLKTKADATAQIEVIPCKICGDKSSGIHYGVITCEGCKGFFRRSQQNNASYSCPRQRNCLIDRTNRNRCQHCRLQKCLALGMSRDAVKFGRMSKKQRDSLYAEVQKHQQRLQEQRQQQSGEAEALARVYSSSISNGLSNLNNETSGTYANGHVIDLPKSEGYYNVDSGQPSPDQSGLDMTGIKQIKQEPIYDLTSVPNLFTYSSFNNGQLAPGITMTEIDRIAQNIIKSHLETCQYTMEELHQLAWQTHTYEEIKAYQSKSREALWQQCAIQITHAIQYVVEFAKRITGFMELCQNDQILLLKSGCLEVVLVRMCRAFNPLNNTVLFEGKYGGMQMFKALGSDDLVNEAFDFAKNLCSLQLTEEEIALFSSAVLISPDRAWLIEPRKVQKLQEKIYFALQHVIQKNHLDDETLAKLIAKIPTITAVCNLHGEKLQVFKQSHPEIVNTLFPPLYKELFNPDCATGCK
The data set is described as follows: Inhibition of Gal4-tagged RORbeta LBD (unknown origin) by cell based luciferase reporter gene assay. A general note: Reporter assays use an easily measured gene product as a stand-in for the process of interest.

A further data set addresses Cytochrome P450 3A4 (Homo sapiens, UniProt P08684). The data set is described as follows: Time dependent inhibition of CYP3A4 (unknown origin). It counts as ADME. Also noted: concentration or dose not given beside the values.
A short description of data set [2]: Inhibition of RORgammat in rat CD4+ T-cells polarized with Th17 cytokine mix assessed as inhibition of IL-17 secretion.
Data set [3] deals with T2, Nuclear receptor ROR-gamma (Homo sapiens, UniProt P51449).
T2 sequence (P51449 whole entry): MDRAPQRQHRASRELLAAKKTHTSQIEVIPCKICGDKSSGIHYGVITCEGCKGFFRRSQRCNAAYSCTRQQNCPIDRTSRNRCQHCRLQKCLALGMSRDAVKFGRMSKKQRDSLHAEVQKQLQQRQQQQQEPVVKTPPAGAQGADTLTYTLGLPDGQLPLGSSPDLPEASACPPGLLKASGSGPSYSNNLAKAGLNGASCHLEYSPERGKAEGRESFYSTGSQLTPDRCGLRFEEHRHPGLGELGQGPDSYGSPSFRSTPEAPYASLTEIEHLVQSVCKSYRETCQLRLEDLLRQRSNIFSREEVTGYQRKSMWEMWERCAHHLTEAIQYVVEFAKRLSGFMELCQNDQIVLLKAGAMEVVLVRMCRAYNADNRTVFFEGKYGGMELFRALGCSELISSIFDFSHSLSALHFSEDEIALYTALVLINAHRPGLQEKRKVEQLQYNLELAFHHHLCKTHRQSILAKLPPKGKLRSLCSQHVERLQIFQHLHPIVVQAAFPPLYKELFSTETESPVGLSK
The data set is described as follows: Inverse agonist activity at RORgammat in human whole blood assessed as reduction in Con A/IL-23-stimulated IL-17 secretion after 72 hrs by ELISA. Format: tissue-based.

In data set [4] the target is T2, Nuclear receptor ROR-gamma. The data set is described as follows: Inhibition of human full-length eGFP-tagged RORgammat expressed in human HUT78 T-cells assessed as inhibition of PMA/CD3 monoclonal antibody stimulated IL-17 secretion after 48 hrs by ELISA. It counts as cell-based. A general note: An ELISA detects its analyte on a solid surface through an enzyme-linked reagent.

Data set [5] is described as follows: Tmax in DA rat at 5 mg/kg, po. Format: ADME, organism-based. Particulars: in vivo.
Data set [6] can be described thus: Dose normalized AUC in DA rat at 5 mg/kg, po. It counts as ADME, organism-based. As to conditions: in vivo.
The target of data set [7] is T3, Peroxisome proliferator-activated receptor gamma (Homo sapiens, UniProt P37231).
T3 sequence (P37231 whole entry): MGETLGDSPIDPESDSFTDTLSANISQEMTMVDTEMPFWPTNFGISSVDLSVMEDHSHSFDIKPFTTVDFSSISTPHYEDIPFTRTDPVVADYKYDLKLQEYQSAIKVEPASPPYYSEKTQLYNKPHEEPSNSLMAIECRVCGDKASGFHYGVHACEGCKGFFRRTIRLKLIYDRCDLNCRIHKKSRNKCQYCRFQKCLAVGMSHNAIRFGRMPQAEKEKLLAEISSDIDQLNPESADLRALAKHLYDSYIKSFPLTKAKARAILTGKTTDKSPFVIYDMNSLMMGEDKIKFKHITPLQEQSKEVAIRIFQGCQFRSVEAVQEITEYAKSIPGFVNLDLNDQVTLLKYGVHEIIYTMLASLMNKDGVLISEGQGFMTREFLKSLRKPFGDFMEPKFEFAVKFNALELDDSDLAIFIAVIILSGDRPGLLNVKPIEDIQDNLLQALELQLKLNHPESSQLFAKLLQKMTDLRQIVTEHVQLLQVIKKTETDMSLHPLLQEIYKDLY
The data set is described as follows: Inhibition of Gal4-tagged PPARgamma LBD (unknown origin) by cell based luciferase reporter gene assay.

Data set [8] has as its target T4, Nuclear receptor ROR-alpha (Homo sapiens, UniProt P35398).
T4 sequence (P35398 whole entry): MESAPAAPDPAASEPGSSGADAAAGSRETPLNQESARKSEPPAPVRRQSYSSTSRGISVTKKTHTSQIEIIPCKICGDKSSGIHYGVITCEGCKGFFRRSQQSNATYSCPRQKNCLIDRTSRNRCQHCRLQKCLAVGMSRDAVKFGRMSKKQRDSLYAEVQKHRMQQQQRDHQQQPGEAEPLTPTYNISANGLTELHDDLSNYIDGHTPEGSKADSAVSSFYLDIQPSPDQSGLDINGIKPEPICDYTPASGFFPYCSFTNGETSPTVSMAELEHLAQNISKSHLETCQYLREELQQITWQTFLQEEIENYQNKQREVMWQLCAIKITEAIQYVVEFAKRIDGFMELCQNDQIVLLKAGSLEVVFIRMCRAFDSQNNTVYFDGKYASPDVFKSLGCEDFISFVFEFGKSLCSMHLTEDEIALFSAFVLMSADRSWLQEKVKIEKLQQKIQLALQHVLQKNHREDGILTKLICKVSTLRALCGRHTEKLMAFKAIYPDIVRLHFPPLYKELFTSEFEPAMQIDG
The data set is described as follows: Inhibition of Gal4-tagged RORalpha LBD (unknown origin) by cell based luciferase reporter gene assay.

Data set [9] has as its target T5, Retinoic acid receptor RXR-alpha (Homo sapiens, UniProt P19793).
T5 sequence (P19793 whole entry): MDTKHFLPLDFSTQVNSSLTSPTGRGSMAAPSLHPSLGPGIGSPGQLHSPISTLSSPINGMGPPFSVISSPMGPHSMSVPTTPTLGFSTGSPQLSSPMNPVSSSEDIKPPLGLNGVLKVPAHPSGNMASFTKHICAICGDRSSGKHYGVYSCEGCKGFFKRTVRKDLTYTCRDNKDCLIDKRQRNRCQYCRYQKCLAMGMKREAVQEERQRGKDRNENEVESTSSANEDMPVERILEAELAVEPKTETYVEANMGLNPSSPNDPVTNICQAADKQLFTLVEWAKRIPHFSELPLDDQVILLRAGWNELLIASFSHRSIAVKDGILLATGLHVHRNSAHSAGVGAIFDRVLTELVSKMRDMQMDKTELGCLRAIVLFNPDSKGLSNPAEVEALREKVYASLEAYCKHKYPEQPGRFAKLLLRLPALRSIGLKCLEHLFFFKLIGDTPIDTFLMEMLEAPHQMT
The data set is described as follows: Inhibition of Gal4-tagged RXRalpha LBD (unknown origin) by cell based luciferase reporter gene assay.

Chain of Cytochrome P450 3A4 (P08684 whole entry): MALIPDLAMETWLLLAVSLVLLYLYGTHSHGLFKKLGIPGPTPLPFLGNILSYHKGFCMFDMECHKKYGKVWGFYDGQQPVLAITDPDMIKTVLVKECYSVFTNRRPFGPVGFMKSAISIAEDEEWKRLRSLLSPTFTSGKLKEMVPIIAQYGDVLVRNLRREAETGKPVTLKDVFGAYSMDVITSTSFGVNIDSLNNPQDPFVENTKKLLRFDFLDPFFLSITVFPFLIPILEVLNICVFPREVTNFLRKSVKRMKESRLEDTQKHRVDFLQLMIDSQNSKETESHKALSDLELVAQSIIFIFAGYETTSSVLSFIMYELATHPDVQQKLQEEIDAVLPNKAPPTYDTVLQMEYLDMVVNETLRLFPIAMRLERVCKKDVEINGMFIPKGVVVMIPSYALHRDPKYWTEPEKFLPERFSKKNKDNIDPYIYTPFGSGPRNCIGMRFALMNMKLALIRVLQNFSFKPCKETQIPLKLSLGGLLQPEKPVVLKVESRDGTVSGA

Take `Cc1c(C2(C(F)(F)F)CC2)nc(C2CC2)n1-c1c(Cl)ccc(N2CC3(CC(C(=O)O)C3)C2)c1Cl` (single isomer, unassigned; atropisomer): the IC50 (as a rule, the concentration needed to halve the response being measured) in data set [1] is more than 10000 nM; in [2], 387 nM; in data set [3] it was 1340 nM; in data set [4] it was 70 nM; in data set [7], more than 10000 nM; in [8] it was more than 10000 nM. The compound also returned an IC50 in [9] of more than 10000 nM. At Cytochrome P450 3A4, this compound returned a K of 0.005 min⁻¹. Also, the Tmax (in general, the time at which the peak concentration occurs) in [5] is 1 h. This compound also yielded an AUC/dose in data set [6] of 11391 nM·h.
